Assay results from ChEMBL document CHEMBL4316596, “Antimicrobial Peptides with High Proteolytic Resistance for Combating Gram-Negative Bacteria” (J Med Chem, 2019).
Converted amounts (≈) assume the structure as drawn. The source made the active and inactive calls. The rule behind the calls is not given here.

Columns and labels:
[1] = system: Escherichia coli; experiment: Antimicrobial activity against Escherichia coli ATCC 25922 after 24 hrs by NCCLS-protocol based assay; format: functional; settings: ATCC 25922, 24 h
[2] = system: Escherichia coli; experiment: Antimicrobial activity against Escherichia coli UB1005 after 24 hrs by NCCLS-protocol based assay; format: functional; settings: UB1005, 24 h
[3] = system: Escherichia coli; experiment: Antimicrobial activity against Escherichia coli 078 after 24 hrs by NCCLS-protocol based assay; format: functional; settings: Escherichia coli, 078, 24 h
[4] = system: Escherichia coli; experiment: Antimicrobial activity against Escherichia coli K88 after 24 hrs by NCCLS-protocol based assay; format: functional; settings: K88, 24 h
[5] = system: Pseudomonas aeruginosa; experiment: Antimicrobial activity against Pseudomonas aeruginosa ATCC 27853 after 24 hrs by NCCLS-protocol based assay; format: functional; settings: ATCC 27853, 24 h
[6] = system: Pseudomonas aeruginosa; experiment: Antimicrobial activity against Pseudomonas aeruginosa CICC 21625 clinical isolates after 24 hrs by NCCLS-protocol based assay; format: functional; settings: CICC 21625, 24 h
[7] = system: Pseudomonas aeruginosa; experiment: Antimicrobial activity against Pseudomonas aeruginosa 25349 clinical isolates after 24 hrs by NCCLS-protocol based assay; format: functional; settings: Pseudomonas aeruginosa, 25349, 24 h
[8] = system: HEK-293T; experiment: Cytotoxicity against HEK293T cells assessed as cell death after 18 to 24 hrs by MTT assay; format: cell-based; settings: Homo sapiens
[9] = Selectivity ratio of IC50 for HEK293T cells to geometric mean of the peptide MBC for bacteria
[10] = system: Escherichia coli; experiment: Bactericidal activity against Escherichia coli ATCC 25922 incubated for 4 hrs followed by culture spread on agar plates and cultured overnight in presence of FeCl3; format: functional; settings: ATCC 25922, 4 h, read-out: MBC>99.9
[11] = system: Escherichia coli; experiment: Bactericidal activity against Escherichia coli ATCC 25922 incubated for 4 hrs followed by culture spread on agar plates and cultured overnight in presence of NH4Cl; format: functional; settings: ATCC 25922, 4 h, read-out: MBC>99.9
[12] = system: Escherichia coli; experiment: Bactericidal activity against Escherichia coli ATCC 25922 incubated for 4 hrs followed by culture spread on agar plates and cultured overnight in presence of 50% serum albumin; format: functional; settings: ATCC 25922, 4 h, read-out: MBC>99.9
[13] = system: Escherichia coli; experiment: Bactericidal activity against Escherichia coli ATCC 25922 incubated for 4 hrs followed by culture spread on agar plates and cultured overnight in presence of 25% serum albumin; format: functional; settings: ATCC 25922, 4 h, read-out: MBC>99.9
[14] = system: Escherichia coli; experiment: Bactericidal activity against Escherichia coli ATCC 25922 incubated for 4 hrs followed by culture spread on agar plates and cultured overnight in presence of 4 mg/ml trypsin; format: functional; settings: ATCC 25922, 4 h, read-out: MBC>99.9
[15] = system: Escherichia coli; experiment: Bactericidal activity against Escherichia coli ATCC 25922 incubated for 4 hrs followed by culture spread on agar plates and cultured overnight in presence of 2 mg/ml trypsin; format: functional; settings: ATCC 25922, 4 h, read-out: MBC>99.9
[16] = system: Escherichia coli; experiment: Bactericidal activity against Escherichia coli ATCC 25922 incubated for 4 hrs followed by culture spread on agar plates and cultured overnight in presence of 1 mg/ml trypsin; format: functional; settings: ATCC 25922, 4 h, read-out: MBC>99.9
[17] = system: Escherichia coli; experiment: Bactericidal activity against Escherichia coli ATCC 25922 incubated for 4 hrs followed by culture spread on agar plates and cultured overnight in presence of 0.5 mg/ml trypsin; format: functional; settings: ATCC 25922, 4 h, read-out: MBC>99.9
[18] = system: Escherichia coli; experiment: Bactericidal activity against Escherichia coli ATCC 25922 incubated for 4 hrs followed by culture spread on agar plates and cultured overnight in presence of 0.125 mg/ml trypsin; format: functional; settings: ATCC 25922, 4 h, read-out: MBC>99.9
[19] = system: Escherichia coli; experiment: Bactericidal activity against Escherichia coli ATCC 25922 incubated for 4 hrs followed by culture spread on agar plates and cultured overnight in presence of 4 mg/ml chymotrypsin; format: functional; settings: ATCC 25922, 4 h, read-out: MBC>99.9
[20] = system: Escherichia coli; experiment: Bactericidal activity against Escherichia coli ATCC 25922 incubated for 4 hrs followed by culture spread on agar plates and cultured overnight in presence of 1 mg/ml chymotrypsin; format: functional; settings: ATCC 25922, 4 h, read-out: MBC>99.9
[21] = system: Escherichia coli; experiment: Bactericidal activity against Escherichia coli ATCC 25922 incubated for 4 hrs followed by culture spread on agar plates and cultured overnight in presence of 0.5 mg/ml chymotrypsin; format: functional; settings: ATCC 25922, 4 h, read-out: MBC>99.9
[22] = system: Escherichia coli; experiment: Induction of outer membrane permeabilization in Escherichia coli ATCC 25922 at 1 uM by NPN-dye based assay relative to control
[23] = system: Escherichia coli; experiment: Induction of cytoplasmic membrane depolarization in Escherichia coli ATCC 25922 at 2 uM up to 5000 secs by DiSC3-5 dye-based fluorescence spectrophotometric method; format: functional, organism-based
[24] = system: Escherichia coli; experiment: Bactericidal activity against Escherichia coli K99 incubated for 4 hrs followed by culture spread on agar plates and cultured overnight; format: functional; settings: K99, 4 h, read-out: MBC>99.9
[25] = system: Pseudomonas aeruginosa; experiment: Bactericidal activity against Pseudomonas aeruginosa PAO1 incubated for 4 hrs followed by culture spread on agar plates and cultured overnight; format: functional; settings: PAO1, 4 h, read-out: MBC>99.9
[26] = system: Pseudomonas aeruginosa; experiment: Bactericidal activity against Pseudomonas aeruginosa 26305 clinical isolates incubated for 4 hrs followed by culture spread on agar plates and cultured overnight; format: functional; settings: Pseudomonas aeruginosa, 26305, 4 h; read-out: MBC>99.9
[27] = system: Pseudomonas aeruginosa; experiment: Bactericidal activity against Pseudomonas aeruginosa CICC 21625 clinical isolates incubated for 4 hrs followed by culture spread on agar plates and cultured overnight; format: functional; settings: CICC 21625, 4 h, read-out: MBC>99.9
[28] = system: Salmonella typhimurium; experiment: Bactericidal activity against Salmonella typhimurium C7731 incubated for 4 hrs followed by culture spread on agar plates and cultured overnight; format: functional, Salmonella enterica subsp. enterica serovar Typhimurium; settings: Salmonella enterica, C7731, 4 h; read-out: MBC>99.9
[29] = system: Acinetobacter baumannii; experiment: Bactericidal activity against Acinetobacter baumannii incubated for 4 hrs followed by culture spread on agar plates and cultured overnight; format: functional; settings: read-out: MBC>99.9
[30] = system: Klebsiella pneumoniae; experiment: Bactericidal activity against Klebsiella pneumoniae incubated for 4 hrs followed by culture spread on agar plates and cultured overnight; format: functional; settings: read-out: MBC>99.9
[31] = system: Escherichia coli; experiment: Induction of cytoplasmic membrane depolarization in Escherichia coli ATCC 25922 assessed as induction cytoplasmic ONPG release at 2 to 16 uM up to 120 mins by DiSC3-5 dye-based fluorescence spectrophotometric method; format: functional, organism-based
[32] = Hemolytic activity against human RBC at 1 to 128 uM after 1 hr; format: ADME, cell-based, Erythrocyte; settings: red blood cells (erythrocytes), read-out: Activity
[33] = molecular target: Chymotrypsin (Homo sapiens, UniProt Q99895+P17538+P40313+Q6GPI1); experiment: Stability of the compound assessed as chymotrypsin (unknown origin)-mediated compound hydrolysis after 8 hrs by SDS-PAGE analysis; format: ADME, protein assay
[34] = Stability of the compound assessed as Tritirachium album proteinase K-mediated compound hydrolysis after 8 hrs by SDS-PAGE analysis; format: ADME; settings: parengyodontium album
[35] = Stability of the compound assessed as Tritirachium album proteinase K-mediated compound hydrolysis by measuring compound helicity by CD spectroscopy; format: ADME; settings: parengyodontium album

Molecule	MIC95 [1]	MIC95 [2]	MIC95 [3]	MIC95 [4]	MIC95 [5]	MIC95 [6]	MIC95 [7]	IC50 [8]	Ratio [9]	MBC [10]	MBC [11]	MBC [12]	MBC [13]	MBC [14]	MBC [15]	MBC [16]	MBC [17]	MBC [18]	MBC [19]	MBC [20]	further results
CC[C@H](C)[C@H](NC(=O)CN)C(=O)NCC(=O)N[C@@H](C)C(=O)N[C@H](C(=O)N[C@@H](CC(C)C)C(=O)N[C@@H](CCCCN)C(=O)N[C@H](C(=O)N[C@@H](CC(C)C)C(=O)N[C@H](C(=O)N[C@H](C(=O)NCC(=O)N[C@@H](CC(C)C)C(=O)N1CCC[C@H]1C(=O)N[C@@H](C)C(=O)N[C@@H](CC(C)C)C(=O)N[C@H](C(=O)N[C@@H](CO)C(=O)N[C@@H](Cc1c[nH]c2ccccc12)C(=O)N[C@H](C(=O)N[C@@H](CCCCN)C(=O)N[C@@H](CCCNC(=N)N)C(=O)N[C@@H](CCCCN)C(=O)N[C@@H](CCCNC(=N)N)C(=O)N[C@@H](CCC(N)=O)C(=O)N[C@@H](CCC(N)=O)C(N)=O)[C@@H](C)CC)[C@@H](C)CC)[C@@H](C)O)[C@@H](C)O)C(C)C)C(C)C [MELITTIN]	2 µM (≈ 5.69 µg/mL)	2 µM (≈ 5.69 µg/mL)	0.5 µM (≈ 1.42 µg/mL)	1 µM (≈ 2.85 µg/mL)	2 µM (≈ 5.69 µg/mL)	4 µM (≈ 11.4 µg/mL)	2 µM (≈ 5.69 µg/mL)	2.48 µM	1.14	2 µM	2 µM	64 µM	64 µM	> 64 µM	> 64 µM	16 µM	4 µM	2 µM	> 64 µM	> 64 µM	MBC [21]: > 64 µM; Activity [22]: Active; Activity [23]: Active; MBC [24]: 2 µM (≈ 5.69 µg/mL); MBC [25]: 2 µM (≈ 5.69 µg/mL); MBC [26]: 2 µM (≈ 5.69 µg/mL); MBC [27]: 4 µM (≈ 11.4 µg/mL); MBC [28]: 2 µM (≈ 5.69 µg/mL); MBC [29]: 1 µM (≈ 2.85 µg/mL); MBC [30]: 2 µM (≈ 5.69 µg/mL); Activity [31]: Active
H-IKPIIKPIIKPIIKPIIKPIIKPIIKPI-NH2	8 µM	4 µM	16 µM	2 µM	> 64 µM	> 64 µM	> 64 µM	5920 µM	162.49	64 µM	16 µM	> 128 µM	> 128 µM	16 µM	16 µM	16 µM	16 µM	16 µM	16 µM	16 µM	MBC [21]: 16 µM; MBC [24]: 4 µM; MBC [25]: > 64 µM; MBC [26]: > 64 µM; MBC [27]: > 64 µM; MBC [28]: > 64 µM; MBC [29]: 2 µM; MBC [30]: 64 µM; hemolysis at 1 h, up to 128 µM [32]: < 5%; Stability [33]: Stable; Stability [34]: Stable; Stability [35]: Unstable
